Laboratory results reported in US11467159B2, “Luminescent phospholipid analogs for the identification and isolation of circulating tumor cells” (CELLECTAR BIOSCIENCES, INC., priority 2016, dated 2022).

Legend:
[1] = system: xenograft and spontaneous tumor models; conditions: over 55 xenograft and spontaneous tumor models; cited from earlier work
CD45+ and CD34+ cells = assay: Flow cytometry uptake of CLR1501 in remaining CD45+ and CD34+ cells of patient blood; format: cell-based, human; conditions: same patient, in comparison with CD14+ cells
Source text: (§1) Whole blood was collected in either Cell Save® collection tubes or ethylenediaminetetraacetic acid (“EDTA”) collection tubes from seven cancer patients with lung (patients 101 and 103), thyroid (patient 102), breast (patient 106), cervical (patient 104), squamous cell carcinoma (107), and colorectal (patient 108) cancer prior to (draw 1) and after (draw 2) therapy, when available. Mononuclear cells were isolated from the whole blood using a Ficoll-Paque density gradient. Cells from each patient were then incubated with an Fc blocker. The cells were then stained with fluorescently-tagged antibodies to CD45, CD14, CD34, EpCAM, and pan-Cytokeratin (CK), and a fluorescent PLE analog (“CLR1501”) for 30 minutes. Cells were then analyzed by flow cytometry to indicate the number of cells from each whole blood sample that were positive and/or negative for a particular marker. According to the current definition, CTCs were identified as live cells that were CD45−, CD14−, CD34−, CK+, and EpCAM+ (“by definition”). Due to prior experience with CD14+ monocytes/macrophages (FIG. 1), CD14+ cells were removed from the analyses due to high uptake of CLR1501. CD34+ normal […] cells were also removed from the analyses.

[2] = system: CD14+ monocytes/macrophages; assay: Flow cytometry uptake of CLR1501 in CD14+ cells of patient blood (FIG. 1); format: cell-based, human
Source text: FIG. 1. […] Upper left quadrant indicates CD14−/CLR1501+ cells, upper right indicates CD14+/CLR1501+, bottom right indicates CD14+/CLR1501−, and bottom left indicates CD14−/CLR1501.
Whole blood was collected in either Cell Save® collection tubes or ethylenediaminetetraacetic acid (“EDTA”) collection tubes from seven cancer patients with lung (patients 101 and 103), thyroid (patient 102), breast (patient 106), cervical (patient 104), squamous cell carcinoma (107), and colorectal (patient 108) cancer prior to (draw 1) and after (draw 2) therapy, when available. Mononuclear cells were isolated from the whole blood using a Ficoll-Paque density gradient. Cells from each patient were then incubated with an Fc blocker. The cells were then stained with fluorescently-tagged antibodies to CD45, CD14, CD34, EpCAM, and pan-Cytokeratin (CK), and a fluorescent PLE analog (“CLR1501”) for 30 minutes. Cells were then analyzed by flow cytometry to indicate the number of cells from each whole blood sample that were positive and/or negative for a particular marker. According to the current definition, CTCs were identified as live cells that were CD45−, CD14−, CD34−, CK+, and EpCAM+ (“by definition”). Due to prior experience with CD14+ monocytes/macrophages (FIG. 1), CD14+ cells were removed from the analyses due to high uptake of CLR1501. CD34+ normal […] cells were also removed from the analyses. […]

circulating tumor cells = assay: Flow cytometry identification and enumeration of circulating tumor cells in mononuclear cells from cancer patients' whole blood stained with CLR1501; format: cell-based, human; conditions: for CK−/EpCAM−/CLR1501+ cells (number): CD45−, CD14−, CD34−, nucleated
Source text: as §1
The first row of Tables 1 and 2 depicts the number of cells from each patient's blood draw that fulfilled the definition of a CTC: CD45−, CD14−, CD34−, CK+, and EpCAM+, and contained a nucleus. The second row depicts the number of cells from each patient's blood draw that were CD45−, CD14−, CD34−, CK+, and contained a nucleus. The third row depicts the number of cells from each patient's blood draw that were CLR 1501+, CD45−, CD14−, CD34−, CK+, and contained a nucleus. The fourth row depicts the number of cells from each patient's blood draw that were CD45−, CD14−, CD34−, and EpCAM+ and contained a nucleus. The fifth row depicts the number of cells from each patient's blood draw that were CLR 1501+, CD45−, CD14−, CD34−, and EpCAM+ and contained a nucleus. The sixth row depicts the number of cells from each patient's blood draw that were CLR 1501+, CD45−, CD14−, CD34−, CK−, and EpCAM−, and contained a nucleus.

SMILES: C[N+](C)(C)CCOP(=O)([O-])OCCCCCCCCCCCCCCCCCCc1ccc(I)cc1 [CLR1404]
- uptake and retention in tumors [1]: selective uptake and prolonged retention in tumors

SMILES: C[N+](C)(C)CCOP(=O)([O-])OCCCCCCCCCCCCCCCCCCc1ccc(C2=C3C=CC=[N+]3[B-](F)(F)n3cccc32)cc1 [CLR1501]
- uptake of CLR1501 by remaining CD45+ and CD34+ cells (CD45+ and CD34+ cells): not take up CLR1501 to a large extent
- uptake of CLR1501 in CD14+ cells ([2]; CD14+ monocytes/macrophages, FIG. 1): high uptake
- cells positive for CD14+ that are also positive for CLR1501 ([2]; CD45−, CD34− cells from patient 108 (colorectal cancer), FIG. 1 panel B): 99.7%
- CK−/EpCAM−/CLR1501+ cells (number) (circulating tumor cells; Cell Save tube, patient 101 draw 1, lung cancer): 1.4 M
- CK−/EpCAM−/CLR1501+ cells (number) (circulating tumor cells; Cell Save tube, patient 101 draw 2, lung cancer): 121,696 cells
- CK−/EpCAM−/CLR1501+ cells (number) (circulating tumor cells; Cell Save tube, patient 102 draw 1, thyroid cancer): 6.7 M
- CK−/EpCAM−/CLR1501+ cells (number) (circulating tumor cells; Cell Save tube, patient 102 draw 2, thyroid cancer): 7.9 M
- CK−/EpCAM−/CLR1501+ cells (number) (circulating tumor cells; Cell Save tube, patient 103, lung cancer): 5.3 M
- CK−/EpCAM−/CLR1501+ cells (number) (circulating tumor cells; Cell Save tube, patient 104 draw 1, cervical cancer): 1.3 M
- CK−/EpCAM−/CLR1501+ cells (number) (circulating tumor cells; Cell Save tube, patient 106, breast cancer): 278 cells
- CK−/EpCAM−/CLR1501+ cells (number) (circulating tumor cells; Cell Save tube, patient 107, carcinoma): 611,622 cells
- CK−/EpCAM−/CLR1501+ cells (number) (circulating tumor cells; Cell Save tube, patient 108 draw 1, colorectal cancer): 1,062 cells
- CK−/EpCAM−/CLR1501+ cells (number) (circulating tumor cells; Cell Save tube, patient 108 draw 2, colorectal cancer): 1.1 M
- CK−/EpCAM−/CLR1501+ cells (number) (circulating tumor cells; EDTA tube, patient 101 draw 1, lung cancer): 1.8 M
- CK−/EpCAM−/CLR1501+ cells (number) (circulating tumor cells; EDTA tube, patient 101 draw 2, lung cancer): 30,222 cells
- CK−/EpCAM−/CLR1501+ cells (number) (circulating tumor cells; EDTA tube, patient 102 draw 1, thyroid cancer): 1.5 M
- CK−/EpCAM−/CLR1501+ cells (number) (circulating tumor cells; EDTA tube, patient 102 draw 2, thyroid cancer): 10.9 M
- CK−/EpCAM−/CLR1501+ cells (number) (circulating tumor cells; EDTA tube, patient 103, lung cancer): 2.5 M
- CK−/EpCAM−/CLR1501+ cells (number) (circulating tumor cells; EDTA tube, patient 104, cervical cancer): 4.0 M
- CK−/EpCAM−/CLR1501+ cells (number) (circulating tumor cells; EDTA tube, patient 106, breast cancer): 19,585 cells
- CK−/EpCAM−/CLR1501+ cells (number) (circulating tumor cells; EDTA tube, patient 107, carcinoma): 147,641 cells
- CK−/EpCAM−/CLR1501+ cells (number) (circulating tumor cells; EDTA tube, patient 108 draw 1, colorectal cancer): 29,584 cells
- CK−/EpCAM−/CLR1501+ cells (number) (circulating tumor cells; EDTA tube, patient 108 draw 2, colorectal cancer): 753,387 cells
- CK+ cells identified by CLR 1501 (circulating tumor cells; all cancer types, either blood collection tube, listed as 2 vs row 3 of Table 1 or 2): 99-100%
- EpCAM+ cells identified by CLR 1501 (circulating tumor cells; all cancer types, either blood collection tube, listed as 4 vs row 5 of Table 1 or 2): 35-100%
- uptake of CLR1501 by CTCs (by definition) (circulating tumor cells; all seven patient samples): positive uptake
